Measurements published in PubChem BioAssay (NCI).
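Briefly, cells in 96-well plates were exposed to five compound concentrations for 48 h, and endpoints were estimated by linear interpolation. GI50 = concentration required for 50% inhibition of growth. The concentration for full growth arrest is given as TGI.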

Experiments:
Assay in all cases: NCI tumour cell line growth inhibition, 48 h
[1] = tested on: RXF 393 renal
[2] = tested on: MALME-3M melanoma
[3] = tested on: NCI-H23 lung
[4] = tested on: OVCAR-8 ovarian
[5] = tested on: SNB-19 CNS
[6] = tested on: A549 NSCLC
[7] = tested on: SW-620 colon
[8] = tested on: SK-MEL-5 melanoma

Structure (SMILES)	TGI [1]	TGI [2]	TGI [3]	TGI [4]	TGI [5]	TGI [6]	TGI [7]	TGI [8]	GI50 [1]	GI50 [2]	GI50 [3]	GI50 [8]	GI50 [4]	GI50 [5]	GI50 [6]	GI50 [7]
O=c1[nH]c(-c2ccccc2)nc2ccc(Cl)cc12	> 100 µM	> 100 µM	> 100 µM	> 100 µM	> 100 µM	> 100 µM	> 100 µM									
CS(=O)(=O)N(CCC#N)c1ccc(/C=N/NC(=O)CC(=O)Nc2cccc(Cl)c2)cc1	> 100 µM	> 100 µM	> 100 µM	> 100 µM	> 100 µM	> 100 µM	> 100 µM	> 100 µM								
Cn1ccnc1C(c1nccn1C)C(C)(C)[N+](=O)[O-]	> 100 µM			> 100 µM		> 100 µM	> 100 µM	> 100 µM								
Cc1ccc(C(=O)O/N=C2/CCCCC2CN(C)C)cc1 (stereo not drawn)	> 100 µM	> 100 µM	> 100 µM	> 100 µM		> 100 µM		> 100 µM								
O=C1O[C@H](C(Cl)(Cl)Cl)N2CCCC12 (stereo partly drawn)	> 100 µM	> 100 µM	> 100 µM	> 100 µM	> 100 µM	> 100 µM	> 100 µM	> 100 µM								
COc1ccccc1/C=C1\CCC(CNc2ccc(Cl)cc2)C1=O (stereo not drawn)	30.3 µM	28.4 µM	20.8 µM	20.7 µM	25 µM	17 µM	20 µM	18.4 µM								
CNS(=O)(=O)NN(C)S(=O)(=O)c1ccc(Cl)cc1	> 100 µM	> 100 µM	> 100 µM	> 100 µM	> 100 µM	> 100 µM	> 100 µM	> 100 µM								
Oc1ccc2occ3c2c1CCC3	> 100 µM		> 100 µM	> 100 µM	> 100 µM	> 100 µM	> 100 µM	> 100 µM								
CC1CCC2(NC1)OC1CC3[C@@H]4CC=C5C=CCC[C@]5(C)C4CC[C@]3(C)C1C2C (stereo partly drawn)	> 100 µM	35.3 µM	> 100 µM	48.1 µM	> 100 µM	58.5 µM	41.2 µM	30.8 µM								
COc1cc(N=Nc2ccccc2)cc(/C=N\[N-]C(N)=S)c1[O-].COc1cc(N=Nc2ccccc2)cc(/C=N\[N-]C(N)=S)c1[O-].[Fe+4]	> 100 µM	> 100 µM	> 100 µM	> 100 µM	> 100 µM	> 100 µM	> 100 µM	49 µM	10.9 µM	59.6 µM	21.1 µM	13.5 µM	29.1 µM	44.4 µM	46.4 µM	50.2 µM
NC1CCCCC1N.O=C([O-])P(=O)([O-])[O-].[Na+].[Pt+4] (stereo not drawn)	> 100 µM	> 100 µM	> 100 µM	> 100 µM	> 100 µM	> 100 µM	> 100 µM		> 100 µM	84.3 µM	> 100 µM		98.2 µM	> 100 µM	> 100 µM	28.8 µM
COc1ccc(S(=O)(=O)N/N=C/CN2C(=O)c3ccccc3C2=O)cc1OC	> 100 µM	> 100 µM	> 100 µM	> 100 µM	> 100 µM	> 100 µM	> 100 µM	> 100 µM								
O=C(O)CNS(=O)(=O)c1ccc(NC(=O)c2ccc(F)cc2)cc1	> 100 µM	> 100 µM	> 100 µM	> 100 µM	> 100 µM	> 100 µM	> 100 µM	> 100 µM								
CC(C)COC(=O)N1N=NC2C3OC(CC3=O)C21 (stereo not drawn)	> 100 µM	> 100 µM	> 100 µM	> 100 µM	> 100 µM		> 100 µM	> 100 µM								
CCN(CC)c1ccc(N=C2C=CC(=O)c3ncccc32)c(C)c1	12.6 µM	12.5 µM	18.6 µM	10.5 µM	29.8 µM	26.1 µM	7.12 µM	18.4 µM								
CS(=O)(=O)OCCN1CCN(C(=O)c2cccc3c(Nc4ccc(S(N)(=O)=O)cc4)c4ccccc4nc23)CC1	> 100 µM	> 100 µM	> 100 µM	> 100 µM	> 72.6 µM	> 100 µM	> 55.8 µM	> 100 µM								
Cc1cc2c(cc1C)[n+](=O)c(C(=O)/C=C/c1ccc(Cl)cc1)c(C)n2[O-]		> 100 µM	65.6 µM	84.2 µM	> 100 µM	80.4 µM	> 100 µM	58.7 µM								
Cn1cc(NC(=O)c2cc(NC(=O)Nc3cc(C(=O)Nc4cc(C(=O)NCCC(=N)N)n(C)c4)n(C)c3)cn2C)cc1C(=O)NCCC(=N)N	42.9 µM	> 100 µM	> 100 µM	50 µM	> 100 µM	83.4 µM	> 100 µM	53.1 µM								
O=C1CCC2CCc3cccc4oc1c2c34 (stereo not drawn)	> 100 µM		> 100 µM	> 100 µM	> 100 µM	> 100 µM	> 100 µM	> 100 µM								
CCOC(=O)C(=O)C1C(=O)Nc2ccccc21 (stereo not drawn)	> 100 µM	> 100 µM	> 100 µM	> 100 µM	> 100 µM	> 100 µM	> 100 µM									
